Assay results taken from PubChem BioAssay AID1963966 (Molecular Pharmacology Branch, DTP, NCI, 2024).

Test system: 935938-334-R-J1-PDC spheroids with HUVEC/MSC, viability
Assay: Anticancer human tumor 935938-334-R-J1-PDC patient-derived small intestine adenocarcinoma cell line growth inhibition [PI3K]
Details: for IC50: curve of first compound; for viability, T/C: stronger effect = lower value
In short: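 Combination activity was assessed by viability in multicellular tumor spheroids carrying HUVEC and MSC components. Agents were tested with PI3K inhibitors from a Cmax-based top dose (or 10 microM) downward in half-log increments.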

[1] = second compound 0.0316 µM, first compound 0.0316 µM
[2] = second compound 0.0316 µM, first compound 0.1 µM
[3] = second compound 0.1 µM, first compound 0.0316 µM
[4] = second compound 0.1 µM, first compound 0.1 µM
[5] = second compound 0.316 µM, first compound 0.0316 µM
[6] = second compound 0.316 µM, first compound 0.1 µM
[7] = second compound 1 µM, first compound 0.0316 µM
[8] = second compound 1 µM, first compound 0.1 µM
[9] = second compound 3.16 µM, first compound 0.0316 µM
[10] = second compound 3.16 µM, first compound 0.1 µM
[11] = second compound 10 µM, first compound 0.0316 µM
[12] = second compound 10 µM, first compound 0.1 µM
[13] = second compound 0.0316 µM, first compound 0.316 µM
[14] = second compound 0.0316 µM, first compound 1 µM
[15] = second compound 0.0316 µM, first compound 3.16 µM
[16] = second compound 0.0316 µM, first compound 10 µM
[17] = second compound 0.1 µM, first compound 0.316 µM
[18] = second compound 0.1 µM, first compound 1 µM
[19] = second compound 0.1 µM, first compound 3.16 µM
[20] = second compound 0.1 µM, first compound 10 µM
[21] = second compound 0.316 µM, first compound 0.316 µM
[22] = second compound 0.316 µM, first compound 1 µM
[23] = second compound 0.316 µM, first compound 3.16 µM
[24] = second compound 0.316 µM, first compound 10 µM
[25] = second compound 1 µM, first compound 0.316 µM
[26] = second compound 1 µM, first compound 1 µM
[27] = second compound 1 µM, first compound 3.16 µM
[28] = second compound 1 µM, first compound 10 µM
[29] = second compound 3.16 µM, first compound 0.316 µM
[30] = second compound 3.16 µM, first compound 1 µM
[31] = second compound 3.16 µM, first compound 3.16 µM
[32] = second compound 3.16 µM, first compound 10 µM
[33] = second compound 10 µM, first compound 0.316 µM
[34] = second compound 10 µM, first compound 1 µM
[35] = second compound 10 µM, first compound 3.16 µM
[36] = second compound 10 µM, first compound 10 µM
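Further: compound exposure lasted seven days before viability was read.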
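Wherever viability, T/C is given: percent of vehicle DMSO treated spheroid viability so 100% = untreated.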

SMILES: Cn1ncnc1[C@H]1c2n[nH]c(=O)c3cc(F)cc(c23)N[C@@H]1c1ccc(F)cc1 + CC(Nc1ncnc2nc[nH]c12)c1cc2cccc(Cl)c2c(=O)n1-c1ccccc1
- IC50 (second compound 0.0316 µM): > 100 nM
- IC50 (second compound 0.1 µM): > 100 nM
- IC50 (second compound 0.316 µM): > 100 nM
- IC50 (second compound 1 µM): > 100 nM
- IC50 (second compound 3.16 µM): > 100 nM
- IC50 (second compound 10 µM): > 100 nM
- viability, T/C (second compound 0.0316 µM, first compound 0.000316 µM): 95.3%
- viability, T/C (second compound 0.0316 µM, first compound 0.001 µM): 84.7%
- viability, T/C (second compound 0.0316 µM, first compound 0.00316 µM): 82.9%
- viability, T/C (second compound 0.0316 µM, first compound 0.01 µM): 108%
- viability, T/C [1]: 102%
- viability, T/C [2]: 84.3%
- viability, T/C (second compound 0.1 µM, first compound 0.000316 µM): 86.7%
- viability, T/C (second compound 0.1 µM, first compound 0.001 µM): 84.5%
- viability, T/C (second compound 0.1 µM, first compound 0.00316 µM): 91.8%
- viability, T/C (second compound 0.1 µM, first compound 0.01 µM): 80.2%
- viability, T/C [3]: 85.1%
- viability, T/C [4]: 88.1%
- viability, T/C (second compound 0.316 µM, first compound 0.000316 µM): 109%
- viability, T/C (second compound 0.316 µM, first compound 0.001 µM): 85.4%
- viability, T/C (second compound 0.316 µM, first compound 0.00316 µM): 83.6%
- viability, T/C (second compound 0.316 µM, first compound 0.01 µM): 97.4%
- viability, T/C [5]: 81.3%
- viability, T/C [6]: 83.2%
- viability, T/C (second compound 1 µM, first compound 0.000316 µM): 102%
- viability, T/C (second compound 1 µM, first compound 0.001 µM): 115%
- viability, T/C (second compound 1 µM, first compound 0.00316 µM): 86.3%
- viability, T/C (second compound 1 µM, first compound 0.01 µM): 48.2%
- viability, T/C [7]: 93.1%
- viability, T/C [8]: 87.2%
- viability, T/C (second compound 3.16 µM, first compound 0.000316 µM): 98%
- viability, T/C (second compound 3.16 µM, first compound 0.001 µM): 71.9%
- viability, T/C (second compound 3.16 µM, first compound 0.00316 µM): 90.9%
- viability, T/C (second compound 3.16 µM, first compound 0.01 µM): 70.9%
- viability, T/C [9]: 83.2%
- viability, T/C [10]: 84.1%
- viability, T/C (second compound 10 µM, first compound 0.000316 µM): 62.7%
- viability, T/C (second compound 10 µM, first compound 0.001 µM): 89%
- viability, T/C (second compound 10 µM, first compound 0.00316 µM): 94.6%
- viability, T/C (second compound 10 µM, first compound 0.01 µM): 81.5%
- viability, T/C [11]: 91.6%
- viability, T/C [12]: 67.8%

SMILES: Cn1nccc1Nc1nccc(-c2ccn(C(CO)c3ccc(Cl)c(F)c3)c(=O)c2)n1 (stereo unspecified) + Cc1nc(NC(=O)N2CCCC2C(N)=O)sc1-c1ccnc(C(C)(C)C(F)(F)F)c1
- IC50 (second compound 0.0316 µM): 805 nM
- IC50 (second compound 0.1 µM): 973 nM
- IC50 (second compound 0.316 µM): 315 nM
- IC50 (second compound 1 µM): 211 nM
- IC50 (second compound 3.16 µM): 46.8 nM
- IC50 (second compound 10 µM): < 31.6 nM
- viability, T/C [1]: 92.1%
- viability, T/C [2]: 80.5%
- viability, T/C [13]: 61%
- viability, T/C [14]: 48.5%
- viability, T/C [15]: 36.2%
- viability, T/C [16]: 31.6%
- viability, T/C [3]: 100%
- viability, T/C [4]: 73.5%
- viability, T/C [17]: 62%
- viability, T/C [18]: 53.4%
- viability, T/C [19]: 38.6%
- viability, T/C [20]: 25.1%
- viability, T/C [5]: 94.1%
- viability, T/C [6]: 71%
- viability, T/C [21]: 48.2%
- viability, T/C [22]: 39.3%
- viability, T/C [23]: 25%
- viability, T/C [24]: 25.6%
- viability, T/C [7]: 62.2%
- viability, T/C [8]: 75.7%
- viability, T/C [25]: 39.7%
- viability, T/C [26]: 26%
- viability, T/C [27]: 25.8%
- viability, T/C [28]: 19.2%
- viability, T/C [9]: 50.6%
- viability, T/C [10]: 51.3%
- viability, T/C [29]: 33.1%
- viability, T/C [30]: 37.4%
- viability, T/C [31]: 20.8%
- viability, T/C [32]: 18.7%
- viability, T/C [11]: 43.9%
- viability, T/C [12]: 48%
- viability, T/C [33]: 28.6%
- viability, T/C [34]: 22.2%
- viability, T/C [35]: 20.8%
- viability, T/C [36]: 19.9%

SMILES: CC1(C)CCC(Nc2ncc(C(F)(F)F)c(-c3c[nH]c4c(P(C)(C)=O)c(C#N)ccc34)n2)CN1 (stereo unspecified) + CC(Nc1ncnc2nc[nH]c12)c1cc2cccc(Cl)c2c(=O)n1-c1ccccc1
- IC50 (second compound 0.0316 µM): < 31.6 nM
- IC50 (second compound 0.1 µM): < 31.6 nM
- IC50 (second compound 0.316 µM): < 31.6 nM
- IC50 (second compound 1 µM): < 31.6 nM
- IC50 (second compound 3.16 µM): < 31.6 nM
- IC50 (second compound 10 µM): < 31.6 nM
- viability, T/C [1]: 43%
- viability, T/C [2]: 46.4%
- viability, T/C [13]: 31.9%
- viability, T/C [14]: 35.3%
- viability, T/C [15]: 34.8%
- viability, T/C [16]: 5.59%
- viability, T/C [3]: 42.3%
- viability, T/C [4]: 36.5%
- viability, T/C [17]: 32.7%
- viability, T/C [18]: 36.9%
- viability, T/C [19]: 35.1%
- viability, T/C [20]: 6.35%
- viability, T/C [5]: 38%
- viability, T/C [6]: 37.1%
- viability, T/C [21]: 41.2%
- viability, T/C [22]: 36.5%
- viability, T/C [23]: 26.8%
- viability, T/C [24]: 6.84%
- viability, T/C [7]: 42%
- viability, T/C [8]: 35.5%
- viability, T/C [25]: 41%
- viability, T/C [26]: 34.8%
- viability, T/C [27]: 33.2%
- viability, T/C [28]: 7.47%
- viability, T/C [9]: 30.8%
- viability, T/C [10]: 38.6%
- viability, T/C [29]: 41.8%
- viability, T/C [30]: 36.2%
- viability, T/C [31]: 32.6%
- viability, T/C [32]: 5.17%
- viability, T/C [11]: 37.8%
- viability, T/C [12]: 37%
- viability, T/C [33]: 35.9%
- viability, T/C [34]: 35.1%
- viability, T/C [35]: 28.5%
- viability, T/C [36]: 5.58%
